Test results: patent US20240140991A1, “ANTIBIOTIC NATURAL PRODUCT ANALOGUES” (THE QUEEN'S UNIVERSITY OF BELFAST, priority 2021, published 2024)
Values after ≈ are worked out from the molar mass of the structure shown. Positions of bridges follow the written chain, without caps; N, C: chain ends. Non-standard residues stand in square brackets, D forms with d. Residues, ends and D or L forms follow the SMILES beside them. ξ: configuration not given here. *: point of attachment. Octanoyl(7-Me) = CC(C)CCCCCC(=O)*; Hexanoyl(4ξ-Me) = CCC(C)CCC(=O)*; dOrn = NCCC[C@@H](N)C(=O)O; Orn = NCCC[C@H](N)C(=O)O; Dap = NC[C@H](N)C(=O)O; Alloc = C=CCOC(=O)*; OAll = C=CCO*

System: Escherichia coli ATCC 25922
Assay type: cell-based
Conditions: ATCC 25922
Experimental: Minimum inhibitory concentration (MIC) was determined by broth microdilution according to CLSI guidelines. Blood agar plates were inoculated with glycerol stocks of Escherichia coli ATCC 25922, E. coli ATCC 25922 MCR-1, E. coli MCR-1 (clinical isolate from Utrecht Medical Center, NL), E. coli EQAS MCR-2 (clinical isolate from Wageningen University and Research, NL), Kiebsielia pneumoniae ATCC 11228, K. pneumoniae ATCC 13883, K. pneumonia 2048 (clinical isolate from Vrije Universiteit Amsterdam Medical Center, NL), K. pneumonia JS-123 (clinical isolate from Utrecht Medical Center, NL), Acinetobacter baumannii ATCC 17961, A. baumannil ATCC 17978, A. baumannii 2018-006 (clinical isolate from Rijksinstituut voor Volksgezondheid en Milieu, NL), A. baumannii MDR (clinical isolate from Vrije Universiteit Amsterdam Medical Center, NL), Pseudomonas aeruginosa ATCC 27853, P. aeruginosa PAO1, P. aeruginosa NRZ-03961 (Reference strain from Das Nationale Referenzzentrum für gramnegative Krankenhauserreger, DE), P. aeruginosa M-120 (clinical isolate from Leiden University Medical Center, NL) and Staphylococcus aureus USA300 (clinical isolate from Texas Children's Hospitalm, USA). E. coli 25922 MCR1 was grown on LB agar supplemented with kanamycin. The inoculated agar plates were then incubated for 16 hours at 37° C. Individually grown colonies were subsequently used to inoculate 3 mL aliquots of TSB that were then incubated at 37° C. with shaking at 220 rpm. In parallel, the compounds to be assessed were serially diluted with Mueller-Hinton broth (MHB) in polypropylene 96-well plates (50 μL in each well). Once the OD600 of the bacterial suspensions reached 0.5, the bacteria were diluted with MHB (final concentration 2×10^5 CFU mL^−1) and added to the microplates containing the test compounds (50 μL to each well, final volume: 100 μL). The well-plates were sealed with an adhesive membrane and after 16 hours of incubation at 37° C. with shaking at 220 rpm the wells were visually inspected for bacterial growth. MIC values were defined as the lowest concentration of the compound that prevented visible growth of bacteria.

Row | Structure (SMILES) | Minimum inhibitory concentration (MIC) [µg/mL]
1 | C=CCOC(=O)CNC(=O)CNC(=O)[C@H](CC(N)=O)NC(=O)[C@@H](NC(=O)[C@H](CNC(=O)OCC=C)NC(=O)[C@H](Cc1c[nH]c2ccccc12)NC(=O)[C@@H](CCCN)NC(=O)CNC(=O)[C@H](CCCN)NC(=O)[C@@H](CCCN)NC(=O)[C@@H](Cc1c[nH]c2ccccc12)NC(=O)[C@@H](Cc1ccc(O)cc1)NC(=O)[C@@H](CO)NC(=O)CCCCCC(C)C)[C@@H](C)CC [Dap(Alloc)9-COOAll] ({Octanoyl(7-Me)}-[dS][dY][dW][dOrn][Orn]G[dOrn]W[Dap](Alloc)INGG-OAll) | 2 (≈ 1.15 µM)
2 | CC[C@H](C)[C@H](NC(=O)[C@H](CO)NC(=O)[C@H](Cc1c[nH]c2ccccc12)NC(=O)[C@@H](CCCN)NC(=O)CNC(=O)[C@H](CCCN)NC(=O)[C@@H](CCCN)NC(=O)[C@@H](Cc1c[nH]c2ccccc12)NC(=O)[C@@H](Cc1ccc(O)cc1)NC(=O)[C@@H](CO)NC(=O)CCCCCC(C)C)C(=O)N[C@@H](CC(N)=O)C(N)=O [ΔG12-G13-Ser9-isoC9] ({Octanoyl(7-Me)}-[dS][dY][dW][dOrn][Orn]G[dOrn]WSIN-NH2) | 4 (≈ 2.68 µM)
3 | CC(C)CCCCCC(=O)N[C@H](CO)C(=O)N[C@H](Cc1ccc(O)cc1)C(=O)N[C@H](Cc1c[nH]c2ccccc12)C(=O)N[C@H](CCCN)C(=O)N[C@@H](CCCN)C(=O)NCC(=O)N[C@H](CCCN)C(=O)N[C@@H](Cc1c[nH]c2ccccc12)C(=O)N[C@H](C(N)=O)[C@@H](C)O [ΔI10-G13, FA-sywoOGoWT-CONH2] ({Octanoyl(7-Me)}-[dS][dY][dW][dOrn][Orn]G[dOrn]WT-NH2) | 16 (≈ 12.5 µM)
4 | CC[C@H](C)[C@H](NC(=O)[C@H](CC(C)C)NC(=O)[C@H](Cc1c[nH]c2ccccc12)NC(=O)[C@@H](CCCN)NC(=O)CNC(=O)[C@H](CCCN)NC(=O)[C@@H](CCCN)NC(=O)[C@@H](Cc1c[nH]c2ccccc12)NC(=O)[C@@H](Cc1ccc(O)cc1)NC(=O)[C@@H](CO)NC(=O)CCCCCC(C)C)C(=O)N[C@@H](CC(N)=O)C(=O)NCC(=O)NCC(N)=O [Leu9-CONH2] ({Octanoyl(7-Me)}-[dS][dY][dW][dOrn][Orn]G[dOrn]WLINGG-NH2) | 2 to 4
5 | CC[C@H](C)[C@H](NC(=O)[C@@H](NC(=O)[C@H](Cc1c[nH]c2ccccc12)NC(=O)[C@@H](CCCN)NC(=O)CNC(=O)[C@H](CCCN)NC(=O)[C@@H](CCCN)NC(=O)[C@@H](Cc1c[nH]c2ccccc12)NC(=O)[C@@H](Cc1ccc(O)cc1)NC(=O)[C@@H](CO)NC(=O)CCCCCC(C)C)[C@@H](C)O)C(=O)N[C@@H](CC(N)=O)C(=O)NCC(=O)NCC(N)=O [Thr (linear laterocidine)] ({Octanoyl(7-Me)}-[dS][dY][dW][dOrn][Orn]G[dOrn]WTINGG-NH2; N-terminus and C-terminus assumed) | 2 (≈ 1.23 µM)
6 | CC[C@H](C)[C@H](NC(=O)[C@H](CCSC)NC(=O)[C@H](Cc1c[nH]c2ccccc12)NC(=O)[C@@H](CCCN)NC(=O)CNC(=O)[C@H](CCCN)NC(=O)[C@@H](CCCN)NC(=O)[C@@H](Cc1c[nH]c2ccccc12)NC(=O)[C@@H](Cc1ccc(O)cc1)NC(=O)[C@@H](CO)NC(=O)CCCCCC(C)C)C(=O)N[C@@H](CC(N)=O)C(=O)NCC(=O)NCC(N)=O [Met9-CONH2] ({Octanoyl(7-Me)}-[dS][dY][dW][dOrn][Orn]G[dOrn]WMINGG-NH2) | 2 (≈ 1.21 µM)
7 | CC[C@H](C)[C@H](NC(=O)[C@H](Cc1ccccc1)NC(=O)[C@H](Cc1c[nH]c2ccccc12)NC(=O)[C@@H](CCCN)NC(=O)CNC(=O)[C@H](CCCN)NC(=O)[C@@H](CCCN)NC(=O)[C@@H](Cc1c[nH]c2ccccc12)NC(=O)[C@@H](Cc1ccc(O)cc1)NC(=O)[C@@H](CO)NC(=O)CCCCCC(C)C)C(=O)N[C@@H](CC(N)=O)C(=O)NCC(=O)NCC(N)=O [Phe9-CONH2] ({Octanoyl(7-Me)}-[dS][dY][dW][dOrn][Orn]G[dOrn]WFINGG-NH2) | 2 (≈ 1.2 µM)
8 | CC(C)CCCCCC(=O)N[C@H](CO)C(=O)N[C@H](Cc1ccc(O)cc1)C(=O)N[C@H](Cc1c[nH]c2ccccc12)C(=O)N[C@H](CCCN)C(=O)N[C@@H](CCCN)C(=O)NCC(=O)N[C@H](CCCN)C(=O)N[C@@H](Cc1c[nH]c2ccccc12)C(N)=O [ΔT9-G13, FA-sywoOGoW-CONH2] ({Octanoyl(7-Me)}-[dS][dY][dW][dOrn][Orn]G[dOrn]W-NH2) | 16 (≈ 13.6 µM)
9 | CC[C@H](C)[C@H](NC(=O)[C@H](CO)NC(=O)[C@H](Cc1c[nH]c2ccccc12)NC(=O)[C@@H](CCCN)NC(=O)CNC(=O)[C@H](CCCN)NC(=O)[C@@H](CCCN)NC(=O)[C@@H](Cc1c[nH]c2ccccc12)NC(=O)[C@@H](Cc1ccc(O)cc1)NC(=O)[C@@H](CO)NC(=O)CCCCCC(C)C)C(=O)N[C@@H](CC(N)=O)C(=O)NCC(N)=O [ΔG13-Ser9-isoC9] ({Octanoyl(7-Me)}-[dS][dY][dW][dOrn][Orn]G[dOrn]WSING-NH2) | 4 (≈ 2.58 µM)
10 | CC[C@H](C)[C@H](NC(=O)[C@@H](NC(=O)[C@H](Cc1c[nH]c2ccccc12)NC(=O)[C@@H](CCCN)NC(=O)CNC(=O)[C@H](CCCN)NC(=O)[C@@H](CCCN)NC(=O)[C@@H](Cc1c[nH]c2ccccc12)NC(=O)[C@@H](Cc1ccc(O)cc1)NC(=O)[C@@H](CO)NC(=O)CCCCCC(C)C)[C@@H](C)O)C(=O)N[C@@H](CC(N)=O)C(=O)NCC(N)=O [ΔG13, FA-sywoOGoWTING-CONH2] ({Octanoyl(7-Me)}-[dS][dY][dW][dOrn][Orn]G[dOrn]WTING-NH2) | 2 (≈ 1.28 µM)
11 | CC[C@H](C)[C@H](NC(=O)[C@@H](NC(=O)[C@H](Cc1c[nH]c2ccccc12)NC(=O)[C@@H](CCCN)NC(=O)CNC(=O)[C@H](CCCN)NC(=O)[C@@H](CCCN)NC(=O)[C@@H](Cc1c[nH]c2ccccc12)NC(=O)[C@@H](Cc1ccc(O)cc1)NC(=O)[C@@H](CO)NC(=O)CCCCCC(C)C)[C@@H](C)O)C(=O)N[C@@H](CC(N)=O)C(=O)NCC(=O)NCC(=O)O [Linear Laterocidine (Thr9-COOH)] ({Octanoyl(7-Me)}-[dS][dY][dW][dOrn][Orn]G[dOrn]WTINGG-OH) | 4 to 8
12 | CC[C@H](C)[C@H](NC(=O)[C@@H](NC(=O)[C@H](Cc1c[nH]c2ccccc12)NC(=O)[C@@H](CCCN)NC(=O)CNC(=O)[C@H](CCCN)NC(=O)[C@@H](CCCN)NC(=O)[C@@H](Cc1c[nH]c2ccccc12)NC(=O)[C@@H](Cc1ccc(O)cc1)NC(=O)[C@@H](CO)NC(=O)CCCCCC(C)C)[C@@H](C)O)C(=O)N[C@@H](CC(N)=O)C(N)=O [ΔG12-G13, FA-sywoOGoWTIN-CONH2] ({Octanoyl(7-Me)}-[dS][dY][dW][dOrn][Orn]G[dOrn]WTIN-NH2) | 4 (≈ 2.65 µM)

More lines, now with the values ahead:

Row | Minimum inhibitory concentration (MIC) [µg/mL] | Structure (SMILES)
13 | 2 to 4 | CC[C@H](C)[C@@H]1NC(=O)[C@@H](NC(=O)[C@H](Cc2c[nH]c3ccccc23)NC(=O)[C@@H](CCCN)NC(=O)CNC(=O)[C@H](CCCN)NC(=O)[C@@H](CCCN)NC(=O)[C@@H](Cc2c[nH]c3ccccc23)NC(=O)[C@@H](Cc2ccc(O)cc2)NC(=O)[C@@H](CO)NC(=O)CCCCCC(C)C)[C@@H](C)OC(=O)CNC(=O)[C@H](CO)NC(=O)CNC1=O [Compound R3] ({Octanoyl(7-Me)}-[dS][dY][dW][dOrn][Orn]G[dOrn]WTIGSG; ester 9-C; N-terminus assumed)
14 | 1 to 2 | CC[C@H](C)[C@@H]1NC(=O)[C@@H](NC(=O)[C@H](Cc2c[nH]c3ccccc23)NC(=O)[C@@H](CCCN)NC(=O)CNC(=O)[C@H](CCCN)NC(=O)[C@@H](CCCN)NC(=O)[C@@H](Cc2c[nH]c3ccccc23)NC(=O)[C@@H](Cc2ccc(O)cc2)NC(=O)[C@@H](CO)NC(=O)CCCCCC(C)C)[C@@H](C)OC(=O)[C@@H](C)NC(=O)[C@@H](CO)NC(=O)CNC1=O [Compound R12] ({Octanoyl(7-Me)}-[dS][dY][dW][dOrn][Orn]G[dOrn]WTIG[dS][dA]; ester 9-C; N-terminus assumed)
15 | 1 (≈ 0.628 µM) | CC[C@H](C)[C@@H]1NC(=O)[C@@H](NC(=O)[C@H](Cc2c[nH]c3ccccc23)NC(=O)[C@@H](CCCN)NC(=O)CNC(=O)[C@H](CCCN)NC(=O)[C@@H](CCCN)NC(=O)[C@@H](Cc2c[nH]c3ccccc23)NC(=O)[C@@H](Cc2ccc(O)cc2)NC(=O)[C@@H](CO)NC(=O)CCCCCC(C)C)[C@@H](C)OC(=O)[C@@H](C)NC(=O)[C@H](CO)NC(=O)CNC1=O [Compound R11] ({Octanoyl(7-Me)}-[dS][dY][dW][dOrn][Orn]G[dOrn]WTIGS[dA]; ester 9-C; N-terminus assumed)
16 | 1 to 2 | CCC(C)CCC(=O)N[C@H](CO)C(=O)N[C@H](Cc1ccc(O)cc1)C(=O)N[C@H](Cc1c[nH]c2ccccc12)C(=O)N[C@H](CCCN)C(=O)N[C@@H](CCCN)C(=O)NCC(=O)N[C@H](CCCN)C(=O)N[C@@H](Cc1c[nH]c2ccccc12)C(=O)N[C@@H]1C(=O)N[C@@H]([C@@H](C)CC)C(=O)NCC(=O)N[C@H](CO)C(=O)N[C@H](C)C(=O)O[C@@H]1C (stereo partly shown) [Compound R8] ({Hexanoyl(4ξ-Me)}-[dS][dY][dW][dOrn][Orn]G[dOrn]WTIG[dS][dA]; ester 9-C; N-terminus assumed)
